Test results as given in patent publication US9446012B2, “Pharmaceutical compounds” (BIAL-PORTELA & CA, S.A., priority 2006, dated 2016).

What was measured:
[1] = tested on: liver COMT; assay: Liver COMT activity after oral administration (methylation of adrenaline to metanephrine in liver homogenates); format: in vivo, rat; details: FIG. 1; for inhibition of liver COMT / inhibition of liver COMT activity / time to maximal inhibitory effect on liver COMT: 3 mg/kg; for inhibition of liver COMT: 24 hours after administration; for inhibition of liver COMT activity: nine hours after administration
[2] = Brain levels of L-DOPA, 3-O-methyl-L-DOPA, dopamine, DOPAC and HVA in rats treated with L-DOPA plus benserazide; format: in vivo, rat
[3] = Plasma levels of L-DOPA and 3-O-methyl-L-DOPA in rats treated with L-DOPA plus benserazide; format: in vivo, rat; details: 3 mg/kg
[4] = Treatment of Parkinson's disease patients on L-DOPA therapy; format: in vivo, human; details: tablets containing 50 mg
[5] = 3 mg/kg, L-DOPA plus benserazide, all pre-treatment times (1, 7 and 24 h)
[6] = L-DOPA 12 mg/kg plus benserazide 3 mg/kg, all pre-treatment times (1, 7 and 24 h)
[7] = 3 mg/kg, administered 24 h in advance

SMILES: Cc1nc(Cl)c(-c2noc(-c3cc(O)c(O)c([N+](=O)[O-])c3)n2)c(C)c1Cl [compound A, 5-[3-(2,5-dichloro-4,6-dimethylpyridin-3-yl)-[1,2,4]oxadiazol-5-yl]-3-nitrobenzene-1,2-diol]
- inhibition of liver COMT [1]: 60 % of control levels
- inhibition of liver COMT activity [1]: 90 % of control levels
- time to maximal inhibitory effect on liver COMT ([1]; oral administration): ≤ 6 h
- inhibitor of liver COMT (in words) ([1]; oral administration): potent inhibitor
- brain 3-O-methyl-L-DOPA [2, 5]: marked decrease
- brain DOPAC [2, 5]: significant increases
- brain L-DOPA [2, 5]: significant increases
- brain dopamine [2, 5]: significant increases
- circulating 3-O-methyl-L-DOPA [3, 6]: marked decrease
- plasma L-DOPA [3, 6]: significant increases
- clinical picture [4]: significant improvement

SMILES: Cc1ccc(C(=O)c2cc(O)c(O)c([N+](=O)[O-])c2)cc1 [tolcapone, 3,4-dihydroxy-4′-methyl-5-nitrobenzophenone]
- inhibition of liver COMT [1]: almost devoid of COMT inhibitory properties
- time to maximal inhibitory effect on liver COMT ([1]; after administration): ≤ 0.5 h
- inhibition of liver COMT activity [1]: minimal inhibitory effects
- brain levels of 3-O-methyl-L-DOPA [2, 7]: not affected
- brain levels of DOPAC [2, 7]: not affected
- brain levels of L-DOPA [2, 7]: not affected
- brain levels of dopamine [2, 7]: not affected
- steadiness of brain delivery of L-DOPA ([2]; rat, in vivo): marked oscillations
- 3-O-methyl-L-DOPA plasma levels ([3]; 2 and 7 h after administration): Significant changes
- L-DOPA plasma levels ([3]; 2 and 7 h after administration): Significant changes
- plasma levels of 3-O-methyl-L-DOPA ([3]; administered 24 h in advance): not affected
- plasma levels of L-DOPA ([3]; administered 24 h in advance): not affected
